Experimental data published in patent US20240287138A1, “CYCLIC PEPTIDES FOR INHIBITING TNF RECEPTOR 1 ACTIVITY” (Merck Sharp & Dohme LLC, priority 2023, published 2024).
Numbered stars: 1 amine (or outer) side, 2 acyl side, 3 side chain; on linkers, the order of the positions; unused ones are H or OH. Bridge positions count the residues as written; N and C are the ends. Square brackets hold non-standard residues; d marks the D form. Peptide text beside a SMILES is read from it. * marks the point of attachment. Trp(βS-Me,7-OMe) = COc1cccc2c([C@H](C)[C@H](N)C(=O)O)c[nH]c12; Trp(7-Br) = N[C@@H](Cc1c[nH]c2c(Br)cccc12)C(=O)O; Trp(7-Cl) = N[C@@H](Cc1c[nH]c2c(Cl)cccc12)C(=O)O; Phe(4-CONH2) = NC(=O)c1ccc(C[C@H](N)C(=O)O)cc1; Phe(4-COOH) = N[C@@H](Cc1ccc(C(=O)O)cc1)C(=O)O; Pip(5R-OH) = O=C(O)[C@@H]1CC[C@@H](O)CN1; X1 = O=C([C@@H]1CC[C@H](N[*:1])C1)[*:2]; Pip(4-aza) = O=C(O)[C@@H]1CNCCN1; 4Pal = N[C@@H](Cc1ccncc1)C(=O)O; NMeE = CN[C@@H](CCC(=O)O)C(=O)O; αMeS = C[C@](N)(CO)C(=O)O; Carboxymethyl = O=C(O)C*; Nle = CCCC[C@H](N)C(=O)O; Nme = COCCNCC(=O)O; Sar = CNCC(=O)O

How the values were obtained:
human TNFR2 ECD protein = biological target: T1, human TNFR2 ECD protein (Homo sapiens, UniProt P20333); assay: SPR off-target binding (selectivity) to human TNFR2 ECD
T1 construct: HRV 3C protease cleavage site (C); 6His (C, cleaved yes); made in house; host or cells: Sf21 insect cells (baculovirus), secreted
T1 sequence (P20333 23-257): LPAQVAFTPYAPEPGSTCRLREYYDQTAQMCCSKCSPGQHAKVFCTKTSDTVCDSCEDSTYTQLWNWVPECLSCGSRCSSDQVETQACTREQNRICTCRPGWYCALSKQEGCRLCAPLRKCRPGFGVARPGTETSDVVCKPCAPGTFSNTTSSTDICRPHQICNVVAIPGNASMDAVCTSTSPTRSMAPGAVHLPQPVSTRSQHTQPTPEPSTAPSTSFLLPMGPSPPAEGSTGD
Description: (§1) B. Procedure for Binding Affinity and Selectivity measured by SPR
(§2) Affinity and selectivity for hTNFR1 and TNFR2 was determined using SPR. Human TNFR1 or TNFR2 genes (extracellular domain only) were synthesized with a C-terminal Avi-tag, HRV 3C protease cleavage site followed by a 6His-tag for affinity purification. The final gene product was cloned into pBAC™-1 vector (Millipore Sigma) for expression testing in insect cells. Constructs were transfected into Sf21 cells for baculovirus generation followed by protein expression analysis in Sf21 and Tni cell lines. Large scale expression in Sf21 cells was performed using baculovirus infected insect cells (BIICs) infected at a MOI=2.0 grown for 72 h. Target proteins secreted into the media were harvested via centrifugation and concentrated using diafiltration. TNFR was purified by immobilized metal ion affinity chromatography (IMAC) using a Ni-Sepharose HisTrap™ column (Cytiva™). Isolated TNFR had His tag removed using HRV 3C protease followed by additional purification using Ni-NTA chromatography. Biotinylation was performed on Ni-NTA flow-through fractions concentrated to 45 μM and treated with BirA ligase (1:100, μg/μg ratio) in 50 mM Tris pH 7.5, 150 mM NaCl, 50 μM biotin, 10 mM magnesium acetate, 10 mM ATP at 4° C. for 20 h. Final purification of biotin-TNFR and buffer exchange into 20 mM HEPES pH 7.5, 150 mM NaCl was performed using a HiLoad® Superdex® 200 26/60 column (Cytiva™). Highly purified protein was aliquoted and stored at −80° C.
(§3) The SPR assay uses a Cytiva™ 8K or 8K+ biosensor instrument to measure the kinetics of peptide analytes binding to captured human TNFR1 extracellular domain (ECD) protein; peptide analytes are also evaluated for any off-target binding to human TNFR2 ECD protein in parallel. Recombinant human TNFR1 ECD and human TNFR2 ECD proteins, biotinylated via engineered C-terminal avi-tags, are immobilized to a regenerable streptavidin biosensor chip surface (Cytiva™ Biotin CAPture kit, Series S; cat. #28920234). Peptide analytes binding to immobilized human TNFR1 ECD protein and their subsequent dissociation are conducted in a buffer of 10 mM HEPES pH 7.4, 150 mM NaCl, 3 mM EDTA, 0.05% P20,2% DMSO under laminar flow conditions and measured in response units (RU), which are directly proportional to the accumulated mass on the surface of the biosensor chip; the biosensor chip surface is regenerated via Cytiva™ proprietary methods between the evaluation of each peptide analyte. […] The SPR assay determines the association and dissociation rate constants, kon and koff, for each peptide analyte and, from these values, calculates the binding affinity, […] reported in Table 2.

[1] = biological target: T2, human TNFR1 extracellular domain (ECD) protein (Homo sapiens, UniProt P19438); assay: SPR binding affinity to captured human TNFR1 ECD
T2 construct: HRV 3C protease cleavage site (C); 6His (C, cleaved yes); made in house; host or cells: Sf21 insect cells (baculovirus), secreted
T2 sequence (P19438 30-211): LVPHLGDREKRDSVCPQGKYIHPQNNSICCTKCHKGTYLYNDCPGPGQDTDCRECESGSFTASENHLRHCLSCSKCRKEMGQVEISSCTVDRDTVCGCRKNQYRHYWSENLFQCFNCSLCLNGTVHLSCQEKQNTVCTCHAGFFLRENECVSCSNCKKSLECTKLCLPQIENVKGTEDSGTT
Description: as §1, §2, §3

[2] = biological target: T3, TNFα-induced NF-κB signal transduction pathway (TNFR1 signaling) in THP-1 cells (Homo sapiens, UniProt P19438); assay: THP-1 Lucia NF-κB reporter cell assay, inhibition of TNFα-induced NF-κB signaling; assay type: cell-based; conditions: THP-1 NF-κB Lucia reporter cells, 10 ng/mL TNFα, 16-18 h, secreted luciferase; read-out: THP-1 IC50
T3 sequence (P19438 30-455): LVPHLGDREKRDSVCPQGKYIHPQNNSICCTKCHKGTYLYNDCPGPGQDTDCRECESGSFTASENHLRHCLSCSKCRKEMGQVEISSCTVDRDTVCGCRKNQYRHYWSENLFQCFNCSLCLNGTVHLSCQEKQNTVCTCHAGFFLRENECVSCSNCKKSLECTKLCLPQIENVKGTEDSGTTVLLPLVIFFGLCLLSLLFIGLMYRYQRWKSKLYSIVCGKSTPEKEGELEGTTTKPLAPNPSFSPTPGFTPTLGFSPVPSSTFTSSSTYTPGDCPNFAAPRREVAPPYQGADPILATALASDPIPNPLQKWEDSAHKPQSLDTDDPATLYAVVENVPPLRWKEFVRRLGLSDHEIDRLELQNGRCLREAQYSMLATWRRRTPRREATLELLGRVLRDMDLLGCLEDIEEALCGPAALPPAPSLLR
In short: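 THP-1 Lucia NF-κB cells, 20k/well, no selection antibiotics; peptide pre-inc 1 h 37 °C; + recombinant human TNFα 10 ng/mL final; o.n.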

| Compound | Kd (human TNFR2 ECD protein) | Kd [1] | IC50 [2] |
| --- | --- | --- | --- |
| CCCC[C@@H]1NC(=O)CSC[C@@H](C(N)=O)NC(=O)[C@H]([C@@H](C)c2c[nH]c3c(OC)cccc23)NC(=O)CN(C)C(=O)[C@H](Cc2ccc(O)cc2)NC(=O)[C@H](Cc2ccc(C(N)=O)cc2)NC(=O)[C@](C)(CO)NC(=O)[C@H](Cc2c[nH]c3c(Br)cccc23)NC(=O)[C@H](Cc2ccncc2)NC(=O)[C@H](CC(N)=O)NC(=O)[C@H](CCC(=O)O)N(C)C(=O)[C@H](Cc2c[nH]c3ccccc23)NC(=O)[C@@H]2CC[C@@H](O)CN2C(=O)[C@H](Cc2ccncc2)NC1=O [SEQ ID NO. 39] ({CH2CO}-[Nle][4Pal][Pip(5R-OH)]W[NMeE]N[4Pal][Trp(7-Br)][αMeS][Phe(4-CONH2)]Y[Sar][Trp(βS-Me,7-OMe)]C-NH2; thioether N-14) | > 1000 nM | 0.05 nM | 0.9 nM |
| CCCC[C@@H]1NC(=O)[C@@H]2CC[C@@H](C2)NC(=O)[C@H]([C@@H](C)c2c[nH]c3c(OC)cccc23)NC(=O)CN(C)C(=O)[C@H](Cc2ccc(O)cc2)NC(=O)[C@H](Cc2ccc(C(N)=O)cc2)NC(=O)[C@](C)(CO)NC(=O)[C@H](Cc2c[nH]c3c(Cl)cccc23)NC(=O)[C@H](Cc2ccc(OCC(=O)O)cc2)NC(=O)[C@H](CC(N)=O)NC(=O)[C@H](CCC(=O)O)N(C)C(=O)[C@H](Cc2c[nH]c3ccccc23)NC(=O)[C@@H]2CC[C@@H](O)CN2C(=O)[C@H](Cc2ccncc2)NC1=O [SEQ ID NO. 44] (cyclo([4Pal][Pip(5R-OH)]W[NMeE]NY(Carboxymethyl)[Trp(7-Cl)][αMeS][Phe(4-CONH2)]Y[Sar][Trp(βS-Me,7-OMe)][X1][Nle])) | > 1000 nM | 0.16 nM | 0.5 nM |
| CCCC[C@@H]1NC(=O)[C@@H]2CC[C@@H](C2)NC(=O)[C@H]([C@@H](C)c2c[nH]c3c(OC)cccc23)NC(=O)CN(C)C(=O)[C@H](Cc2ccc(O)cc2)NC(=O)[C@H](Cc2ccc(C(=O)O)cc2)NC(=O)[C@](C)(CO)NC(=O)[C@H](Cc2c[nH]c3c(Cl)cccc23)NC(=O)[C@H](Cc2ccncc2)NC(=O)[C@H](CC(N)=O)NC(=O)CN(CCOC)C(=O)[C@H](Cc2c[nH]c3ccccc23)NC(=O)[C@@H]2CNCCN2C(=O)[C@H](Cc2ccncc2)NC1=O [SEQ ID NO. 82] (cyclo([4Pal][Trp(7-Cl)][αMeS][Phe(4-COOH)]Y[Sar][Trp(βS-Me,7-OMe)][X1][Nle][4Pal][Pip(4-aza)]W[Nme]N)) | > 1000 nM | 0.07 nM |  |
| CCCC[C@@H]1NC(=O)CSC[C@@H](C(N)=O)NC(=O)[C@H]([C@@H](C)c2c[nH]c3c(OC)cccc23)NC(=O)CN(C)C(=O)[C@H](Cc2ccc(C(N)=O)cc2)NC(=O)[C@H](Cc2ccc(C(=O)O)cc2)NC(=O)[C@](C)(CO)NC(=O)[C@H](Cc2c[nH]c3c(Cl)cccc23)NC(=O)[C@H](Cc2ccncc2)NC(=O)[C@H](CC(N)=O)NC(=O)[C@H](CCC(=O)O)N(C)C(=O)[C@H](Cc2c[nH]c3ccccc23)NC(=O)[C@@H]2CNCCN2C(=O)[C@H](Cc2ccncc2)NC1=O [SEQ ID NO. 124] ({CH2CO}-[Nle][4Pal][Pip(4-aza)]W[NMeE]N[4Pal][Trp(7-Cl)][αMeS][Phe(4-COOH)][Phe(4-CONH2)][Sar][Trp(βS-Me,7-OMe)]C-NH2; thioether N-14) | > 1000 nM | 0.12 nM |  |
